Test results as given in DBAASP.
Converted amounts (≈) assume the structure as drawn. “And” between values parts separate entries of the source, which are not always exact repeats. Identical values can stand only once. Each block holds one compound with its values, some of them ahead of it.

Legend:
Experiment in all cases: ≥ marks a high value that may be exact or a test limit, other limits are often not marked, values filed in µg/mL are converted to µM
[1] = system: Staphylococcus aureus ATCC 6538
[2] = system: Pseudomonas aeruginosa ATCC 27853
[3] = system: Bacillus subtilis ATCC 6633
Escherichia coli K-12 = system: Escherichia coli K-12
[4] = system: Micrococcus luteus NCIMB 13267
[5] = system: Staphylococcus aureus ATCC 6538P
[6] = system: Escherichia coli K-12 594
[7] = system: Staphylococcus aureus SR1550
[8] = system: Escherichia coli DH5alpha
[9] = system: Staphylococcus aureus ATCC 43300
[10] = system: Candida albicans MTCC 227
[11] = system: Xanthomonas axonopodis ITCC BD00029
[12] = system: Xanthomonas oryzae ITCC BB00026
[13] = system: Salmonella enterica subsp. enterica serovar Typhi
Vibrio cholerae = system: Vibrio cholerae
Bacillus cereus = system: Bacillus cereus
[14] = system: Fusarium solani MTCC 10158
[15] = system: Acinetobacter baumannii ATCC 17978
[16] = system: Staphylococcus aureus NCTC 13277
[17] = system: Enterococcus faecalis NCTC 775
[18] = system: Pseudomonas aeruginosa PAO1
Klebsiella pneumoniae M6 = system: Klebsiella pneumoniae M6
[19] = system: Staphylococcus aureus NCTC 13616
[20] = system: Staphylococcus aureus NCTC 6571
[21] = system: Acinetobacter baumannii AYE
[22] = system: Pseudomonas aeruginosa NCTC 13437
[23] = system: Enterococcus faecalis NCTC 12201
[24] = system: Streptococcus sanguinis ATCC 49295
[25] = system: Streptococcus mutans GS-5
[26] = system: Streptococcus gordonii ATCC 10558
[27] = system: Streptococcus mutans UA159
[28] = system: Bacillus subtilis DSM 402
[29] = system: Escherichia coli DSM 30083
[30] = system: Staphylococcus aureus DSM 20231
[31] = system: Fusarium oxysporum f. sp. lycopersici ATCC 201829
[32] = system: Pseudomonas syringae EPS 94
[33] = system: Rhizopus stolonifer CECT 2344
[34] = system: Aspergillus niger CECT 2694
[35] = system: Xanthomonas vesicatoria 2133-2
[36] = system: Erwinia amylovora PMV 6076
[37] = system: Penicillium expansum EPS 26
[38] = system: Pseudomonas aeruginosa CGMCC 1.2421
[39] = system: Klebsiella pneumoniae CGMCC 1.1736
[40] = system: Staphylococcus aureus CGMCC 1.8721
[41] = system: Bacillus subtilis CGMCC 1.3376
[42] = system: Escherichia coli CGMCC 1.8732
[43] = system: Staphylococcus epidermidis CGMCC 1.4260

Structure (SMILES): CC(C)C[C@H](NC(=O)[C@H](CC(C)C)NC(=O)[C@H](CC(C)C)NC(=O)[C@H](CC(C)C)NC(=O)[C@H](CC(C)C)NC(=O)[C@H](CCCCN)NC(=O)[C@H](CC(C)C)NC(=O)[C@@H](N)CCCCN)C(N)=O [KLKLLLLL]
MIC [5]: 8.39 µM (≈ 7.99 µg/mL) | MIC [6]: 21 µM (≈ 20 µg/mL) | MIC [7]: ≥ 36.7 µM

Structure (SMILES): NCCCC[C@H](NC(=O)[C@H](CCCCN)NC(=O)[C@H](CO)NC(=O)[C@H](CO)NC(=O)[C@H](CCCCN)NC(=O)[C@H](Cc1c[nH]c2ccccc12)NC(=O)[C@H](CCCN=C(N)N)NC(=O)[C@H](Cc1c[nH]c2ccccc12)NC(=O)[C@H](CCCN=C(N)N)NC(=O)[C@@H](N)CO)C(=O)O [SRWRWKSSKK]
MIC [8]: 30 µM (≈ 40.5 µg/mL) | MIC [9]: 20 µM (≈ 27 µg/mL) | MIC [10]: ≥ 40 µM | MIC [11]: 10 µM (≈ 13.5 µg/mL) | MIC [12]: 10 µM (≈ 13.5 µg/mL) | MIC [13]: 20 µM (≈ 27 µg/mL) | MIC (Vibrio cholerae): 30 µM (≈ 40.5 µg/mL) | MIC (Bacillus cereus): 30 µM (≈ 40.5 µg/mL) | MIC [14]: 20 µM (≈ 27 µg/mL)

Structure (SMILES): NCCCC[C@H](N)C(=O)N[C@@H](CCCN=C(N)N)C(=O)N[C@@H](Cc1c[nH]c2ccccc12)C(=O)N[C@@H](CCCN=C(N)N)C(=O)N[C@@H](Cc1c[nH]c2ccccc12)C(=O)N[C@@H](CCCN=C(N)N)C(=O)N[C@@H](Cc1c[nH]c2ccccc12)C(=O)O [KRWRWRW]
MIC [9]: 12.7 µM (≈ 14.9 µg/mL) | MIC [28]: 2 µM (≈ 2.35 µg/mL) | MIC [29]: 18 µM (≈ 21.1 µg/mL) | MIC [30]: ≥ 37 µM

Structure (SMILES): CC[C@H](C)[C@H](NC(=O)[C@H](CCCCN)NC(=O)[C@H](CCCCN)NC(=O)[C@H](Cc1ccccc1)NC(=O)[C@H](CC(C)C)NC(=O)[C@H](CCCCN)NC(=O)[C@@H](N)Cc1c[nH]c2ccccc12)C(=O)N[C@@H](CC(C)C)C(=O)N[C@@H](CCCCN)C(=O)N[C@@H](Cc1c[nH]c2ccccc12)C(=O)N[C@@H](CC(C)C)C(N)=O [WKLFKKILKWL]
MIC [31]: 1.73 µM (≈ 2.6 µg/mL) | MIC [32]: 5.92 µM (≈ 8.89 µg/mL) | MIC [33]: ≥ 35.4 µM | MIC [34]: 22.4 µM (≈ 33.6 µg/mL) | MIC [35]: 2 µM (≈ 3 µg/mL) | MIC [36]: 5.92 µM (≈ 8.89 µg/mL) | MIC [37]: 22.4 µM (≈ 33.6 µg/mL)

The next lines start with the values.

MIC [1]: 250 µM (≈ 538 µg/mL) | MIC [2]: 250 µM (≈ 538 µg/mL) | MIC [3]: ≥ 250 µM | MIC (Escherichia coli K-12): ≥ 250 µM | MIC [4]: ≥ 250 µM
Structure (SMILES): CC[C@H](C)[C@H](NC(=O)[C@H](CCC(=O)O)NC(=O)[C@H](CCC(N)=O)NC(=O)[C@H](CCC(=O)O)NC(=O)[C@H](CC(C)C)NC(=O)[C@H](C)NC(=O)[C@H](C)NC(=O)[C@@H](NC(=O)[C@H](CCC(=O)O)NC(=O)[C@H](CCC(N)=O)NC(=O)[C@H](CCC(=O)O)NC(=O)[C@H](CC(C)C)NC(=O)[C@H](C)NC(=O)[C@H](C)NC(=O)[C@@H](NC(=O)[C@@H](N)CCC(N)=O)[C@@H](C)CC)[C@@H](C)CC)C(=O)N[C@@H](C)C(=O)N[C@@H](C)C(=O)N[C@@H](CC(C)C)C(=O)N[C@@H](CCC(N)=O)C(=O)O [QIAALEQEIAALEQEIAALQ]

MIC [15]: 5.55 µM and 11.1 µM | MIC [16]: 11.1 µM (≈ 16 µg/mL) | MIC [17]: 22.2 µM and ≥ 44.4 µM | MIC [18]: 88.8 µM (≈ 128 µg/mL) | MIC (Klebsiella pneumoniae M6): 22.2 µM and ≥ 44.4 µM | MIC [19]: 11.1 µM (≈ 16 µg/mL) | MIC [20]: 2.78 µM and 5.55 µM | MIC [21]: 5.55 µM (≈ 7.99 µg/mL) | MIC [22]: ≥ 88.8 µM | MIC [23]: ≥ 88.8 µM
Structure (SMILES): CC[C@H](C)[C@H](NC(=O)[C@@H]1CCCN1C(=O)[C@H](CC(C)C)NC(=O)[C@@H](N)Cc1ccccc1)C(=O)N[C@H](C(=O)NCC(=O)N[C@@H](CC(C)C)C(=O)N[C@@H](CC(C)C)C(=O)N[C@@H](CCCCN)C(=O)N[C@@H](CO)C(=O)N[C@@H](CC(C)C)C(=O)N[C@@H](CC(C)C)C(=O)N[C@@H](CCCCN)C(N)=O)C(C)C [FLPIVGLLKSLLK]

MIC [24]: ≥ 39.8 µM | MIC [25]: 5.33 µM (≈ 13.3 µg/mL) | MIC [26]: 19.9 µM (≈ 49.8 µg/mL) | MIC [27]: 4.27 µM (≈ 10.7 µg/mL)
Structure (SMILES): CC(C)C[C@H](NC(=O)[C@H](CCCN=C(N)N)NC(=O)[C@H](Cc1ccccc1)NC(=O)[C@H](Cc1ccccc1)NC(=O)[C@@H](NC(=O)[C@H](CO)NC(=O)[C@@H](N)CC(C)C)[C@@H](C)O)C(=O)N[C@@H](Cc1ccccc1)C(=O)N[C@@H](CC(N)=O)C(=O)NCC(=O)N[C@@H](CCCN=C(N)N)C(=O)N[C@@H](CCCN=C(N)N)C(=O)N[C@@H](CCCN=C(N)N)C(=O)N[C@@H](CCCN=C(N)N)C(=O)N[C@@H](CO)C(=O)N[C@H](C(=O)N[C@@H](CCC(N)=O)C(=O)N[C@@H](Cc1c[nH]c2ccccc12)C(=O)N[C@@H](CS)C(=O)N[C@@H](C)C(=O)O)C(C)C [LSTFFRLFNGRRRRSVQWCA]

MIC [38]: 6.25 µM (≈ 16 µg/mL) | MIC [39]: 6.25 µM (≈ 16 µg/mL) | MIC [40]: 12.5 µM (≈ 32 µg/mL) | MIC [41]: 6.25 µM (≈ 16 µg/mL) | MIC [42]: 6.25 µM (≈ 16 µg/mL) | MIC [43]: 3.13 µM (≈ 8.02 µg/mL)
Structure (SMILES): CC[C@H](C)[C@H](NC(=O)[C@H](CO)NC(=O)CNC(=O)[C@@H](NC(=O)[C@@H](N)CCCN=C(N)N)[C@@H](C)CC)C(=O)N[C@@H](CC(C)C)C(=O)NCC(=O)N[C@@H](CCCN=C(N)N)C(=O)N[C@@H](CC(C)C)C(=O)N[C@@H](C)C(=O)N[C@@H](CCCCN)C(=O)NCC(=O)N[C@@H](CC(C)C)C(=O)N1CCC[C@H]1C(=O)N[C@H](C(=O)N[C@@H](CC(C)C)C(=O)N[C@H](C(=O)N[C@@H](CO)C(=O)N[C@@H](Cc1c[nH]c2ccccc12)C(=O)N[C@H](C(=O)N[C@@H](CCCCN)C(=O)N[C@@H](CC(N)=O)C(=O)N[C@@H](CCCN=C(N)N)C(N)=O)[C@@H](C)CC)[C@@H](C)CC)[C@@H](C)O [RIGSILGRLAKGLPTLISWIKNR]
